Experiment [1] deals with Avena sativa. Briefly: Induction of phytoalexin avenanthramide A secretion in Avena sativa Pc-2 leaf lower epidermis at 1 ng/ml after 24 hr in presence of CaCl2. The class given is functional, organism-based.
The test system of experiment [2] is Avena sativa. Nature of the experiment: Induction of phytoalexin secretion in Avena sativa Pc-2 leaf lower epidermis assessed as amount of avenanthramide D at 1 ng/ml by HPLC analysis relative to control. In kind it is functional.
The subject of experiment [3] is Avena sativa. Nature of the experiment: Induction of phytoalexin avenanthramide A secretion in Avena sativa Pc-2 leaf lower epidermis at 5 mg/ml after 24 hr. The class given is functional, organism-based.
The test system of experiment [4] is Avena sativa. Briefly: Induction of phytoalexin avenanthramide A secretion in Avena sativa Pc-2 leaf lower epidermis at 100 ng/ml after 24 hr. The class given is functional, organism-based.
The test system of experiment [5] is Avena sativa. Nature of the experiment: Induction of phytoalexin secretion in Avena sativa Pc-2 leaf lower epidermis assessed as amount of avenanthramide L at 1 ng/ml by HPLC analysis relative to control. The class given is functional.
In experiment [6] the test system is Avena sativa. Briefly: Induction of electrolyte leakage in Avena sativa Pc-2 leaf lower epidermis at 1 ng/ml after 24 hr by conductivity test. In kind it is functional, organism-based.
The subject of experiment [7] is Avena sativa. Nature of the experiment: Induction of phytoalexin secretion in Avena sativa Pc-2 leaf lower epidermis assessed as amount of avenanthramide A at 1 ng/ml by HPLC analysis relative to control. The class given is functional.
The subject of experiment [8] is Avena sativa. Briefly: Induction of electrolyte leakage in Avena sativa Pc-2 leaf lower epidermis at 1 ng/ml after 24 hr in presence of CaCl2. In kind it is functional, organism-based.
The test system of experiment [9] is Avena sativa. Nature of the experiment: Induction of phytoalexin secretion in Avena sativa Pc-2 leaf lower epidermis assessed as amount of avenanthramide G at 1 ng/ml by HPLC analysis relative to control. In kind it is functional.
Experiment [10] relates to Avena sativa. Nature of the experiment: Induction of phytoalexin secretion in Avena sativa Pc-2 leaf lower epidermis assessed as amount of avenanthramide G at 1 mg/ml by HPLC analysis relative to control. In kind it is functional, organism-based.
Experiment [11] has as its system Avena sativa. Briefly: Induction of phytoalexin secretion in Avena sativa Pc-2 leaf lower epidermis assessed as amount of avenanthramide L at 1 mg/ml by HPLC analysis relative to control. The class given is functional, organism-based.
For experiment [12], the system named is Avena sativa. Briefly: Induction of phytoalexin avenanthramide A secretion in Avena sativa Shokan-1 leaf lower epidermis at 1 mg/ml after 24 hr in presence of CaCl2. The class given is functional, organism-based.
Experiment [13] concerns Avena sativa. Briefly: Induction of phytoalexin secretion in Avena sativa Shokan-1 leaf lower epidermis assessed as amount of avenanthramide A at 1 mg/ml by HPLC analysis relative to control. The class given is functional.
In experiment [14] the test system is Avena sativa. Nature of the experiment: Induction of phytoalexin secretion in Avena sativa Shokan-1 leaf lower epidermis assessed as amount of avenanthramide D at 1 mg/ml by HPLC analysis relative to control. In kind it is functional.
For experiment [15], the system named is Avena sativa. Nature of the experiment: Induction of phytoalexin secretion in Avena sativa Shokan-1 leaf lower epidermis assessed as amount of avenanthramide L at 1 mg/ml by HPLC analysis relative to control. In kind it is functional.
Experiment [16] has as its system Avena sativa. Nature of the experiment: Induction of phytoalexin secretion in Avena sativa Pc-2 leaf lower epidermis assessed as amount of avenanthramide D at 1 mg/ml by HPLC analysis relative to control. In kind it is functional, organism-based.
Experiment [17] deals with Avena sativa. Briefly: Induction of phytoalexin secretion in Avena sativa Pc-2 leaf lower epidermis assessed as amount of avenanthramide B at 1 mg/ml by HPLC analysis relative to control. In kind it is functional, organism-based.
In experiment [18] the test system is Avena sativa. Nature of the experiment: Induction of electrolyte leakage in Avena sativa Shokan-1 leaf lower epidermis at 1 mg/ml after 24 hr by conductivity test. In kind it is functional, organism-based.
The subject of experiment [19] is Avena sativa. Nature of the experiment: Induction of phytoalexin secretion in Avena sativa Shokan-1 leaf lower epidermis assessed as amount of avenanthramide B at 1 mg/ml by HPLC analysis relative to control. In kind it is functional.
Experiment [20] relates to Avena sativa. Briefly: Induction of phytoalexin secretion in Avena sativa Pc-2 leaf lower epidermis assessed as amount of avenanthramide A at 1 mg/ml by HPLC analysis relative to control. In kind it is functional, organism-based.
The subject of experiment [21] is Avena sativa. Nature of the experiment: Induction of phytoalexin avenanthramide A secretion in Avena sativa Shokan-1 leaf lower epidermis at 1 mg/ml upto 24 hr. The class given is functional, organism-based.
The subject of experiment [22] is Avena sativa. Nature of the experiment: Induction of phytoalexin secretion in Avena sativa Shokan-1 leaf lower epidermis assessed as amount of avenanthramide G at 1 mg/ml by HPLC analysis relative to control. In kind it is functional.
In experiment [23] the test system is Avena sativa. Nature of the experiment: Induction of phytoalexin avenanthramide A secretion in Avena sativa Shokan-1 leaf lower epidermis at 1 mg/ml after 24 hr. The class given is functional, organism-based.
For experiment [24], the system named is Avena sativa. Briefly: Induction of phytoalexin secretion in Avena sativa Shokan-1 leaf lower epidermis assessed as amount of avenanthramide G at 0.1 mg/ml by HPLC analysis relative to control. The class given is functional.
In experiment [25] the test system is Avena sativa. Nature of the experiment: Induction of phytoalexin secretion in Avena sativa Shokan-1 leaf lower epidermis assessed as amount of avenanthramide B at 0.1 mg/ml by HPLC analysis relative to control. The class given is functional.
Experiment [26] concerns Avena sativa. Briefly: Induction of phytoalexin secretion in Avena sativa Pc-2 leaf lower epidermis assessed as amount of avenanthramide L at 0.1 mg/ml by HPLC analysis relative to control. The class given is functional, organism-based.
Experiment [27] deals with Avena sativa. Nature of the experiment: Induction of phytoalexin secretion in Avena sativa Shokan-1 leaf lower epidermis assessed as amount of avenanthramide A at 0.1 mg/ml by HPLC analysis relative to control. In kind it is functional.
Experiment [28] relates to Avena sativa. Nature of the experiment: Induction of phytoalexin secretion in Avena sativa Pc-2 leaf lower epidermis assessed as amount of avenanthramide G at 0.1 mg/ml by HPLC analysis relative to control. In kind it is functional, organism-based.
Experiment [29] deals with Avena sativa. Briefly: Induction of phytoalexin avenanthramide A secretion in Avena sativa Shokan-1 leaf lower epidermis at 0.1 mg/ml after 24 hr in presence of CaCl2. In kind it is functional, organism-based.
For experiment [30], the system named is Avena sativa. Nature of the experiment: Induction of phytoalexin secretion in Avena sativa Pc-2 leaf lower epidermis assessed as amount of avenanthramide A at 0.1 mg/ml by HPLC analysis relative to control. The class given is functional, organism-based.
Experiment [31] deals with Avena sativa. Nature of the experiment: Induction of phytoalexin secretion in Avena sativa Pc-2 leaf lower epidermis assessed as amount of avenanthramide B at 0.1 mg/ml by HPLC analysis relative to control. The class given is functional, organism-based.
The subject of experiment [32] is Avena sativa. Nature of the experiment: Induction of phytoalexin secretion in Avena sativa Pc-2 leaf lower epidermis assessed as amount of avenanthramide D at 0.1 mg/ml by HPLC analysis relative to control. In kind it is functional, organism-based.
In experiment [33] the test system is Avena sativa. Nature of the experiment: Induction of phytoalexin secretion in Avena sativa Shokan-1 leaf lower epidermis assessed as amount of avenanthramide D at 0.1 mg/ml by HPLC analysis relative to control. In kind it is functional.
Experiment [34] has as its system Avena sativa. Nature of the experiment: Induction of phytoalexin secretion in Avena sativa Shokan-1 leaf lower epidermis assessed as amount of avenanthramide L at 0.1 mg/ml by HPLC analysis relative to control. The class given is functional.
Experiment [35] deals with Avena sativa. Briefly: Induction of electrolyte leakage in Avena sativa Shokan-1 leaf lower epidermis at 0.1 mg/ml after 24 hr by conductivity test. In kind it is functional, organism-based.

Active and inactive are the calls of the source. The rule behind the calls is not given here.

Turning to `CC(C)C1OC2=C(CC(C(=O)O)NC(=O)/C(=C/Cl)NC(=O)C1NC(=O)C(NC(=O)C(CC(C)C(Cl)Cl)NC(=O)C(O)O)C(O)CCCN)C(=O)CC2` (stereo not given) [VICTORIN D], the outcome in the experiment with Avena sativa [1], with Avena sativa [3] and with Avena sativa [8] was inactive. In addition, the “fold change (FC)” value with Avena sativa [2] worked out at 38.4; in the experiment on Avena sativa [5], 3; in the experiment on Avena sativa [7] it was 100; in the experiment on Avena sativa [9] it was 84.6. Besides, the result in the experiment with Avena sativa [4] and in the experiment on Avena sativa [6] was Active.
In the case of `CC(=O)N[C@H]1[C@H](O[C@H]2[C@H](O)[C@@H](NC(C)=O)[C@H](O[C@H]3[C@H](O)[C@@H](NC(C)=O)C(O)O[C@@H]3CO)O[C@@H]2CO)O[C@H](CO)[C@@H](O[C@@H]2O[C@H](CO)[C@@H](O[C@@H]3O[C@H](CO)[C@@H](O)[C@H](O)[C@H]3NC(C)=O)[C@H](O)[C@H]2NC(C)=O)[C@@H]1O` (stereo not given in full) [N-ACETYLCHITOPENTAOSE], the outcome in the experiment on Avena sativa [10], in the experiment with Avena sativa [11], with Avena sativa [12], with Avena sativa [16], in the experiment on Avena sativa [17] and in the experiment on Avena sativa [18] was inactive. The outcome with Avena sativa [20] and in the experiment on Avena sativa [23] was inactive. The “fold change (FC)” value in the experiment on Avena sativa [13] was 100; in the experiment on Avena sativa [14] it was 1.9; in the experiment with Avena sativa [15], 20.4; in the experiment on Avena sativa [19], 26; with Avena sativa [22], 2.8. Also, the outcome in the experiment with Avena sativa [21] was Active.
For the compound `N[C@H]1[C@H](O[C@H]2[C@H](O)[C@@H](N)[C@H](O[C@H]3[C@H](O)[C@@H](N)[C@H](O[C@H]4[C@H](O)[C@@H](N)[C@H](O[C@H]5[C@H](O)[C@@H](N)C(O)O[C@@H]5CO)O[C@@H]4CO)O[C@@H]3CO)O[C@@H]2CO)O[C@H](CO)[C@@H](O)[C@@H]1O` (stereo not given in full) [CHITOPENTAOSE], the “fold change (FC)” value with Avena sativa [24] was determined as 13; in the experiment with Avena sativa [25] it was 3.4; in the experiment with Avena sativa [27], 100; in the experiment on Avena sativa [33], 10.7; with Avena sativa [34] it was 1.4. Further, the outcome with Avena sativa [26], with Avena sativa [28], with Avena sativa [29], in the experiment on Avena sativa [30], in the experiment with Avena sativa [31] and in the experiment on Avena sativa [32] was inactive. The outcome in the experiment on Avena sativa [35] was Active.

For the origin of these results see ChEMBL document CHEMBL3045325, “Comparative Studies of Elicitors That Induce Phytoalexin in Oats” (1996).
